{"source": "paper PMC9266822", "about": "“Thermal Shift Assay for Small GTPase Stability Screening: Evaluation and Suitability” (International Journal of Molecular Sciences, 2022)", "key": {"KRAS G13D [1]": {"system": "T1, KRAS G13D", "T1 construct": "GG-Hs.KRAS4b (2-188) G13D; His6-MBP (N, cleaved yes); made in house; host or cells: E. coli", "assay": "SYPRO Orange thermal ramping assay", "assay_type": "binding, human", "details": "KRAS G13D 3 µM, 1 mM MgCl2, GDP 1 µM, ATP 1 mM", "method": "(§1) SYPRO Orange and ANS assays were performed using a one-step protocol, where the samples (8 µL) and SYPRO Orange/ANS solution (12 µL) were combined prior to the first heating step. The samples were incubated for 3 min at each temperature, followed by fluorescence signal measurement. SYPRO Orange was used at 5× (stock 5000×) and ANS at 10 µM final concentration.\n(§2) Thermal stability curves for KRAS WT, G12C, G13D, and Q61R (0–30 µM) were monitored both with SYPRO Orange and ANS in an assay buffer with or without 1 mM MgCl2. In addition, HRAS, NRAS, KRAS V14I, RhoA, and Gαi were studied at 10 µM concentration. KRAS G13D (3 µM) was assayed with SYPRO Orange in thermal ramping in combination with 0–1000 µM GDP, 1000 µM GTP, and 1000 µM ATP in a buffer supplemented with 1 mM MgCl2. Additionally, 10 µM HRAS, NRAS, KRAS V14I, Ac-KRAS iMet-KRAS, RhoA, and Gαi were studied without additional nucleotides or with 10 or 100 µM GDP/GTP in an assay buffer supplemented with 1 mM MgCl2 or 1 mM EDTA."}, "KRAS V14I [2]": {"system": "T2, KRAS V14I", "T2 construct": "KRAS V14I (residues 1-169) lacking the C terminal residues; made in house", "assay": "SYPRO Orange / ANS thermal ramping assay", "assay_type": "binding", "details": "KRAS V14I 10 µM, 1 mM MgCl2; 100 µM ATP", "method": "as §1\nas §2, with “Additionally, 10 µM HRAS, NRAS, KRAS V14I, Ac-KRAS iMet-KRAS, RhoA, and Gαi were studied without additional nucleotides or with 10 or 100 µM GDP/GTP in an assay buffer supplemented with 1 mM MgCl2 or 1 mM EDTA.” left out"}, "NRAS, HRAS, RhoA, Gαi": {"system": "NRAS, HRAS, RhoA, Gαi", "assay": "Protein-Probe thermal stability assay, additional GTPases", "assay_type": "binding", "details": "any tested condition or protein; data not shown", "method": "All Protein-Probe assays were performed using a sample volume of 8 μL and a two-step assay protocol. […] Assays were performed in a sample buffer containing 10 mM HEPES (pH 7.5), 0.001% Triton X-100 and 20 mM NaCl and the buffer was supplemented with 0-10 mM MgCl2, 0-1 mM CaCl2, or 0-1 mM EDTA, depending on the assay. […] Depending on the studied protein, thermal ramping was performed up to 95 °C, using 5 °C intervals. At each temperature, samples were incubated for 3 min before the Protein-Probe solution was added, and the TRL-signals at 620 nm were monitored at RT."}, "KRAS G12C": {"system": "T3, KRAS G12C", "T3 construct": "GG-Hs.KRAS4b (2-188) G12C; His6-MBP (N, cleaved yes); made in house; host or cells: E. coli", "assay": "Protein-Probe thermal stability assay", "assay_type": "binding, human", "details": "Table S1; KRAS G12C 50 nM; EDTA 0.5 mM, MgCl2 1 mM", "method": "All Protein-Probe assays were performed using a sample volume of 8 µL and a two-step assay protocol. […] Assays were performed in a sample buffer containing 10 mM HEPES (pH 7.5), 0.001% Triton X-100 and 20 mM NaCl and the buffer was supplemented with 0–10 mM MgCl2, 0–1 mM CaCl2, or 0–1 mM EDTA, depending on the assay. In all thermal stability assays, samples were preincubated at RT for 10 min (nucleotides) or 30 min (inhibitors) prior to thermal measurements. […] At each temperature, samples were incubated for 3 min before the Protein-Probe solution was added, and the TRL-signals at 620 nm were monitored at RT. […]\n(§3) All inhibitor assays were performed with a buffer containing 1 mM MgCl2. […]"}, "RhoA": {"system": "T4, RhoA", "T4 construct": "and RhoA (1-182) were gen-; His6-MBP (N, cleaved yes); made in house; host or cells: E. coli", "assay": "Protein-Probe thermal stability assay", "assay_type": "binding", "details": "Table S1; RhoA 1 µM; additive concentrations not given (100 µM GDP/GTP)", "method": "(§4) All Protein-Probe assays were performed using a sample volume of 8 µL and a two-step assay protocol. Detection was performed at room temperature (RT) by adding 65 µL Protein-Probe solution: 4 µM HIDC (1,1,3,3,3′,3′-hexamethylindodicarbocyanine iodide) and 1–1.5 nM Eu^3+-labeled peptide probe (NH2-[…]). Assays were performed in a sample buffer containing 10 mM HEPES (pH 7.5), 0.001% Triton X-100 and 20 mM NaCl and the buffer was supplemented with 0–10 mM MgCl2, 0–1 mM CaCl2, or 0–1 mM EDTA, depending on the assay. In all thermal stability assays, samples were preincubated at RT for 10 min (nucleotides) or 30 min (inhibitors) prior to thermal measurements. Depending on the studied protein, thermal ramping was performed up to 95 °C, using 5 °C intervals. At each temperature, samples were incubated for 3 min before the Protein-Probe solution was added, and the TRL-signals at 620 nm were monitored at RT.\n(§5) In addition, KRAS WT was monitored in a sample buffer supplemented with 0–10 mM MgCl2 or 0–1 mM CaCl2.\nKRAS G13D (50 nM) was monitored in the presence of 0–900 nM GDP, and KRAS WT, G13D, G12D, and Q61R (50 nM) were monitored with 10 and/or 100 µM GDP, GTP, and ATP in buffer supplemented with 1 mM MgCl2. KRAS WT (50 nM) was also monitored with 10 µM GDP in a buffer without MgCl2 or supplemented with 0–1 mM CaCl2 or 1 mM EDTA. […] In addition, melting curves for KRAS WT (50 nM) were measured with GTP analogs GTPγS, GMPPNP, and GMPPCP (0–300 µM), and GMP (0–1000 µM) in the presence of 1 mM MgCl2."}, "KRAS Q61L": {"system": "T5, KRAS Q61L", "T5 construct": "GG-Hs.KRAS4b (2-188) Q61L; His6-MBP (N, cleaved yes); made in house; host or cells: E. coli", "assay": "Protein-Probe thermal stability assay", "assay_type": "binding, human", "details": "Table S1; KRAS Q61L 50 nM; MgCl2 1 mM", "method": "as §4, §5\n(§6) Assays were performed using three DARPins alone or in combination with small molecular inhibitors. […] The thermal curves were monitored after an additional 30 min incubation at RT."}, "KRAS V14I [3]": {"system": "T2, KRAS V14I", "assay": "Protein-Probe thermal stability assay", "assay_type": "binding", "details": "Table S1; KRAS V14I 1 µM; MgCl2", "method": "as §4"}, "KRAS G12D": {"system": "KRAS G12D", "assay": "Protein-Probe thermal stability assay", "assay_type": "binding, human", "details": "Table S1; KRAS G12D 50 nM; MgCl2 1 mM, GDP 10 mM as headed", "method": "as §4, §5\n(§7) KRAS G13D (50 nM) was monitored in the presence of 0–900 nM GDP, and KRAS WT, G13D, G12D, and Q61R (50 nM) were monitored with 10 and/or 100 µM GDP, GTP, and ATP in buffer supplemented with 1 mM MgCl2. KRAS WT (50 nM) was also monitored with 10 µM GDP in a buffer without MgCl2 or supplemented with 0–1 mM CaCl2 or 1 mM EDTA. HRAS (2 µM), NRAS (2 µM), RhoA (2 µM), and Gαi (50 nM) were monitored with 100 µM GDP, GTP, or ATP in buffers with or without 1 mM MgCl2 and 1 mM EDTA. In addition, melting curves for KRAS WT (50 nM) were measured with GTP analogs GTPγS, GMPPNP, and GMPPCP (0–300 µM), and GMP (0–1000 µM) in the presence of 1 mM MgCl2.\nAll inhibitor assays were performed with a buffer containing 1 mM MgCl2.\nas §6"}, "Gαi": {"system": "Gαi", "assay": "Protein-Probe thermal stability assay", "assay_type": "binding", "method": "as §4, §5, §7"}, "Ac-KRAS": {"system": "T6, Ac-KRAS", "T6 construct": "Truncated (aa 1–169) iMet-", "assay": "Protein-Probe thermal stability assay", "assay_type": "binding, human", "details": "Table S1; Ac-KRAS 1 µM; MgCl2", "method": "as §4, §5"}, "iMet-KRAS": {"system": "T7, iMet-KRAS", "T7 construct": "iMet-KRAS (G-Hs.KRAS4b(1-169)) (Addgene #159539)", "assay": "Protein-Probe thermal stability assay", "assay_type": "binding, human", "details": "Table S1; iMet-KRAS 1 µM; MgCl2", "method": "as §4, §5"}, "KRAS WT": {"system": "T8, KRAS WT", "T8 construct": "His6-MBP (N, cleaved yes); made in house; host or cells: E. coli", "assay": "Protein-Probe thermal stability assay", "assay_type": "binding, human", "details": "for Thermal Stability (°C): Table S1", "method": "as §4, §5\nas §7, with “KRAS G13D (50 nM) was monitored in the presence of 0–900 nM GDP, and KRAS WT, G13D, G12D, and Q61R (50 nM) were monitored with 10 and/or 100 µM GDP, GTP, and ATP in buffer supplemented with 1 mM MgCl2.” left out\nas §3"}, "KRAS G13D [4]": {"system": "T1, KRAS G13D", "assay": "Protein-Probe thermal stability assay", "assay_type": "binding, human", "method": "as §4, §5, §7, §6"}, "KRAS Q61R": {"system": "T9, KRAS Q61R", "T9 construct": "GG-Hs.KRAS4b (2-188) Q61R; His6-MBP (N, cleaved yes); made in house; host or cells: E. coli", "assay": "Protein-Probe thermal stability assay", "assay_type": "binding, human", "method": "as §4, §5, §7, §6"}}, "note": "Entries after “also recorded” stand apart in the source; their conditions may differ."}
{"compound": "Nc1ncnc2c1ncn2[C@@H]1O[C@H](COP(=O)(O)OP(=O)(O)OP(=O)(O)O)[C@@H](O)[C@H]1O", "note": "[ATP, adenosine-5’-triphosphate]", "values": [{"measurement": "stabilization", "setting": "KRAS G13D [1]", "value": "no effect; also recorded: no KRAS G13D stabilization"}, {"measurement": "effect on stability", "setting": "KRAS V14I [2]", "value": "no effect"}, {"measurement": "stabilization", "setting": "NRAS, HRAS, RhoA, Gαi", "value": "no stabilization"}]}
{"compound": "[Cl-].[Cl-].[Mg+2]", "note": "[MgCl2]", "values": [{"measurement": "Thermal Stability (°C)", "setting": "KRAS G12C", "value": "61.8 ± 0.5", "unit": "°C"}, {"measurement": "Thermal Stability (°C)", "setting": "RhoA", "value": "61.3 ± 0.3", "unit": "°C"}, {"measurement": "Thermal Stability (°C)", "setting": "KRAS Q61L", "value": "60.4 ± 0.5", "unit": "°C"}, {"measurement": "Thermal Stability (°C)", "setting": "KRAS V14I [3]", "value": "47.5 ± 0.2", "unit": "°C"}, {"measurement": "Thermal Stability (°C)", "setting": "KRAS G12D", "value": "60.6 ± 0.5", "unit": "°C"}, {"measurement": "effect of Mg2+ on thermal stability", "setting": "Gαi", "value": "~ 4.2 °C"}, {"measurement": "Thermal Stability (°C)", "setting": "Ac-KRAS", "value": "66.0 ± 1.0", "unit": "°C"}, {"measurement": "Thermal Stability (°C)", "setting": "iMet-KRAS", "value": "66.9 ± 0.2", "unit": "°C"}, {"measurement": "stability increase compared to 1 mM EDTA", "setting": "KRAS WT; KRAS WT 50 nM, additive 1 mM", "value": 9.1, "unit": "°C"}, {"measurement": "Tm", "setting": "KRAS WT; KRAS WT 100 nM, 10 mM MgCl2", "value": "64.7 ± 0.5", "unit": "°C"}, {"measurement": "increase of thermal stability over that without MgCl2", "setting": "KRAS WT; KRAS WT 100 nM, 1 or 10 mM MgCl2", "value": "approximately 10 °C"}, {"measurement": "Tm", "setting": "KRAS WT; KRAS WT 100 nM, additive 1 mM", "value": "60.1 ± 0.3", "unit": "°C"}, {"measurement": "Thermal Stability (°C)", "setting": "KRAS WT; KRAS WT 50 nM, additive as headed: EDTA 0.5 mM, MgCl2 1 mM, GDP 10 mM, GTP 10 µM, GTPγS 10 µM, GMP-PNP 300 µM, GMP-PCP 300 µM, GMP 1 mM", "value": "61.3 ± 0.5", "unit": "°C"}, {"measurement": "Thermal Stability (°C)", "setting": "KRAS WT; KRAS WT 1 µM, MgCl2", "value": "54.4 ± 0.6", "unit": "°C"}, {"measurement": "Tm", "setting": "KRAS G13D [4]; KRAS G13D 100 nM, additive 1 mM", "value": "47.7 ± 0.4", "unit": "°C"}, {"measurement": "Thermal Stability (°C)", "setting": "KRAS G13D [4]; Table S1, KRAS G13D 50 nM, EDTA 0.5 mM, MgCl2 1 mM, GDP 10 mM, GTP 10 µM as headed", "value": "50.7 ± 0.2", "unit": "°C"}, {"measurement": "Tm", "setting": "KRAS Q61R; KRAS Q61R 100 nM, additive 1 mM", "value": "66.5 ± 0.5", "unit": "°C"}, {"measurement": "Thermal Stability (°C)", "setting": "KRAS Q61R; Table S1, KRAS Q61R 50 nM, EDTA 0.5 mM, MgCl2 1 mM, GDP 10 mM, GTP 10 µM as headed", "value": "71.9 ± 0.6", "unit": "°C"}]}
